Target: MAPK14 (UniProt Q16539)
Experiment: MAPK14 Inhibition (PHAS-I)
Conditions: not given

Chain of MAPK14 (Q16539 whole entry, looked up): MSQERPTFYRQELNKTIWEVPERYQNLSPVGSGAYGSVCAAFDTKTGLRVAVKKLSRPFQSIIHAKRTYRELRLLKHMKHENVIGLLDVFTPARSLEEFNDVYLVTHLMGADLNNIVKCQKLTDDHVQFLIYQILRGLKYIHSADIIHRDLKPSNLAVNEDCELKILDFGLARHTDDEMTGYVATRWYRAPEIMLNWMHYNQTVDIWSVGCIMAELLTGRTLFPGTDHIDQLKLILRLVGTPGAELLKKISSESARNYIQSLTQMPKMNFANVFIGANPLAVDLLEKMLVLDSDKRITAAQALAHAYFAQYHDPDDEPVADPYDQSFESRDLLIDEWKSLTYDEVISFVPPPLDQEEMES

IC50 [µM]	SMILES
0.941	CN(C)CCn1cc(-c2ccc(F)cc2)c(-c2ccncc2)n1.CN(C)CCn1ncc(-c2ccc(F)cc2)c1-c1ccncc1
0.86	Fc1ccc(-c2cn(CCN3CCOCC3)nc2-c2ccncc2)cc1.Fc1ccc(-c2cnn(CCN3CCOCC3)c2-c2ccncc2)cc1
5.9	CN1CCC(n2cc(-c3ccc(F)cc3)c(-c3ccncc3)n2)CC1.CN1CCC(n2ncc(-c3ccc(F)cc3)c2-c2ccncc2)CC1
0.695	OCCn1cc(-c2ccc(F)cc2)c(-c2ccncc2)n1.OCCn1ncc(-c2ccc(F)cc2)c1-c1ccncc1

Target: MAPK14 (UniProt Q16539)
Experiment: MAPK14 inhibition (EGFRP)
Conditions: not given

IC50 [µM]	SMILES
10	CN(C)CCn1cc(-c2ccc(F)cc2)c(-c2ccncc2)n1.CN(C)CCn1ncc(-c2ccc(F)cc2)c1-c1ccncc1
> 10	Fc1ccc(-c2cn(CCN3CCOCC3)nc2-c2ccncc2)cc1.Fc1ccc(-c2cnn(CCN3CCOCC3)c2-c2ccncc2)cc1
0.75	CN1CCC(n2cc(-c3ccc(F)cc3)c(-c3ccncc3)n2)CC1.CN1CCC(n2ncc(-c3ccc(F)cc3)c2-c2ccncc2)CC1
10	OCCn1cc(-c2ccc(F)cc2)c(-c2ccncc2)n1.OCCn1ncc(-c2ccc(F)cc2)c1-c1ccncc1

Target: MAPK14 (human) (UniProt Q16539)
Experiment: Antiproliferation Assay (U937 Cells)
Conditions: not given

Chain of MAPK14 (human) (Q16539 whole entry, looked up): as above

IC50 [µM]	SMILES
5	CN(C)CCn1cc(-c2ccc(F)cc2)c(-c2ccncc2)n1.CN(C)CCn1ncc(-c2ccc(F)cc2)c1-c1ccncc1
22	Fc1ccc(-c2cn(CCN3CCOCC3)nc2-c2ccncc2)cc1.Fc1ccc(-c2cnn(CCN3CCOCC3)c2-c2ccncc2)cc1
40	OCCn1cc(-c2ccc(F)cc2)c(-c2ccncc2)n1.OCCn1ncc(-c2ccc(F)cc2)c1-c1ccncc1

Continued, compound first:

SMILES	IC50 [µM]
CNC(=O)Nc1n[nH]c(-c2ccncc2)c1-c1ccc(F)cc1	10
NS(=O)(=O)Nc1n[nH]c(-c2ccc(F)cc2)c1-c1ccncc1	10
Cn1nc(-c2ccncc2)c(-c2ccc(Cl)cc2)c1N	10
Cc1n[nH]c(-c2ccncc2)c1-c1ccccc1	10

Tested on: MAPK14 (Balb/c mice)
Experiment: LPS Induced TNF-alpha Production (Balb/c Mice)
Conditions: dose or concentration not given here

SMILES	inhibition [%]
CN1CCC(n2cc(-c3ccc(F)cc3)c(-c3ccncc3)n2)CC1.CN1CCC(n2ncc(-c3ccc(F)cc3)c2-c2ccncc2)CC1	32

Source: the Kinase Knowledgebase extract (Sharma et al. 2016)
